# Literature values as cited in patent publication US20050244821A1, “Method of identification and quantification of biological molecules and apparatus therefore” (priority 2000, published 2005).
# Target: D2.3 antibody
# Settings: hapten and antibody free in solution; competitive ELISA, further by a fluorescence assay; read-out: affinity constant
substance,measurement,value
p-nitrobenzyl phosphonate N-glycylglutatarate [hapten 23.7],Kd,4 nM
